Test results: patent US10976310B2, “Ligand identification by co-fractionation” (MAX-PLANCK-GESELLSCHAFT ZUR FÖRDERUNG DER WISSENSCHAFTEN …, priority 2016, dated 2021)

Target: T1, Rbp47b-TAP protein (Arabidopsis thaliana, UniProt Q0WW84)
T1 construct: expressed in transfected cells; host or cells: Arabidopsis cell suspension culture, Agrobacterium-transformed
T1 sequence (Q0WW84 1-435): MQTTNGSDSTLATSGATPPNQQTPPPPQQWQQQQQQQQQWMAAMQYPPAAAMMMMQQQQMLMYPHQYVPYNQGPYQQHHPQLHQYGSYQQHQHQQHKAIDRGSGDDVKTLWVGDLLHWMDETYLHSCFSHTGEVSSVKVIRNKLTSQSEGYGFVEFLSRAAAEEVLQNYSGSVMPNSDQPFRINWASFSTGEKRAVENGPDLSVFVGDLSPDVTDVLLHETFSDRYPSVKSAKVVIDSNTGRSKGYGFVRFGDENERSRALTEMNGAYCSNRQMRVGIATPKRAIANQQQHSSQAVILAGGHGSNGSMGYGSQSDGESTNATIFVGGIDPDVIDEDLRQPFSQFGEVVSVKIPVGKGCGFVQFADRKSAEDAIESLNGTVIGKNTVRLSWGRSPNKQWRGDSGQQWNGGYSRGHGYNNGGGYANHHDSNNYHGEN
Assay: Cellular thermal shift assay (CETSA) in native Arabidopsis lysate
Assay type: binding
Details: read-out: change of Rbp47b melting temperature (thermal destabilization)
Procedure: To this end we set out to identify the binding protein partners of 2′,3′-cAMP by applying affinity purification (AP) using agarose beads, with 2′,3′-cAMP linked via the NH2 group of the purine ring. After incubation of the beads with total soluble-protein extracts from A. thaliana cell suspension cultures (cf. Materials and Methods) sequential washings with ADP, GDP, 5′-AMP, and finally 2′,3′-cAMP were performed, and the proteins eluting in the different washings were analyzed by LC-MS/MS proteomics. Proteins eluting from the agarose beads exclusively with 2′,3′-cAMP but absent in any of the other eluents (ADP, GDP, or 5′-AMP; FIG. 10A) were defined as 2′,3′-cAMP-binding. Applying this stringent criterion only one protein remained: the polyadenylate-binding protein Rbp47b. We reasoned that the putative formation of Rbp47b-2′,3′-cAMP complexes in vivo should be reflected by largely overlapping elution profiles of the two components in a size-exclusion experiment (SEC), as was indeed the case (FIG. 10B). To obtain further and independent evidence for the formation of a complex between Rbp47b and 2′,3′-cAMP, we performed a cellular thermal shift assay (CETSA) (Franken et al. (2015) Thermal proteome profiling for unbiased identification of direct and indirect drug targets using multiplexed quantitative mass spectrometry. Nat Protoc 10: 1567-1593). CESTA is a method used in the drug research to verify ligand-receptor binding in the native cellular lysate, based on the observation that presence of the ligand changes thermal stability of the protein receptor. Herein, we adapted the protocol to be suitable for the plant material and an endogenous […] metabolite. We used Arabidopsis cells expressing a tagged version of the Rbp47b, so that Rbp47b level could be easily detected with the anti-tag antibody. […] Taken together, three independent experimental approaches (AP, SEC, and CETSA) provide evidence for the binding of 2′,3′-cAMP to Rbp47b in the native Arabidopsis lysate. […]

Nc1ncnc2c1ncn2[C@@H]1O[C@H](CO)[C@H]2OP(=O)(O)O[C@H]21 [2′,3′-cAMP]
ΔTm at 10 µM: 2.4 °C
ΔTm at 100 µM: 5.1 °C
